Here are results for one molecule from ChEMBL document CHEMBL6103575, “Design, synthesis and evaluation of (E)-1-(4-(2-(1H-pyrazol-5-yl)vinyl)phenyl) derivatives as next generation selective RET inhibitors overcoming RET solvent front mutations (G810C/R)” (Eur J Med Chem, 2025).

Experiment [1] is described as follows: Induction of cell cycle arrest in mouse BaF3 cells harboring CCDC6-RET G810R mutant assessed as accumulation of cells at G2/M phase at 10 nM incubated for 24 hrs by propidium iodide staining based analysis (reference value: 33.61%). Type of experiment: functional.
The test system of experiment [2] is BaF3. Nature of the experiment: Antiproliferative activity against mouse BaF3 cells harbouring CCDC6-RET G810C mutant assessed as inhibition of cell proliferation incubated for 72 hrs by CCK-8 assay. Type of experiment: functional, cell-based. To be noted: BaF3, 72 h.
Experiment [3] has as its system BaF3. In words: Antiproliferative activity against mouse BaF3 cells harbouring CCDC6-RET G810R mutant assessed as inhibition of cell proliferation incubated for 72 hrs by CCK-8 assay. In kind it is functional, cell-based. To be noted: BaF3, 72 h.
Experiment [4] relates to Proto-oncogene tyrosine-protein kinase receptor Ret (Homo sapiens), P07949 [G810R]. Nature of the experiment: Inhibition of RET (unknown origin) G810R mutant at 1 uM relative to control.
Proto-oncogene tyrosine-protein kinase receptor Ret (Homo sapiens), P07949 [G810R], sequence (P07949 whole entry G810R): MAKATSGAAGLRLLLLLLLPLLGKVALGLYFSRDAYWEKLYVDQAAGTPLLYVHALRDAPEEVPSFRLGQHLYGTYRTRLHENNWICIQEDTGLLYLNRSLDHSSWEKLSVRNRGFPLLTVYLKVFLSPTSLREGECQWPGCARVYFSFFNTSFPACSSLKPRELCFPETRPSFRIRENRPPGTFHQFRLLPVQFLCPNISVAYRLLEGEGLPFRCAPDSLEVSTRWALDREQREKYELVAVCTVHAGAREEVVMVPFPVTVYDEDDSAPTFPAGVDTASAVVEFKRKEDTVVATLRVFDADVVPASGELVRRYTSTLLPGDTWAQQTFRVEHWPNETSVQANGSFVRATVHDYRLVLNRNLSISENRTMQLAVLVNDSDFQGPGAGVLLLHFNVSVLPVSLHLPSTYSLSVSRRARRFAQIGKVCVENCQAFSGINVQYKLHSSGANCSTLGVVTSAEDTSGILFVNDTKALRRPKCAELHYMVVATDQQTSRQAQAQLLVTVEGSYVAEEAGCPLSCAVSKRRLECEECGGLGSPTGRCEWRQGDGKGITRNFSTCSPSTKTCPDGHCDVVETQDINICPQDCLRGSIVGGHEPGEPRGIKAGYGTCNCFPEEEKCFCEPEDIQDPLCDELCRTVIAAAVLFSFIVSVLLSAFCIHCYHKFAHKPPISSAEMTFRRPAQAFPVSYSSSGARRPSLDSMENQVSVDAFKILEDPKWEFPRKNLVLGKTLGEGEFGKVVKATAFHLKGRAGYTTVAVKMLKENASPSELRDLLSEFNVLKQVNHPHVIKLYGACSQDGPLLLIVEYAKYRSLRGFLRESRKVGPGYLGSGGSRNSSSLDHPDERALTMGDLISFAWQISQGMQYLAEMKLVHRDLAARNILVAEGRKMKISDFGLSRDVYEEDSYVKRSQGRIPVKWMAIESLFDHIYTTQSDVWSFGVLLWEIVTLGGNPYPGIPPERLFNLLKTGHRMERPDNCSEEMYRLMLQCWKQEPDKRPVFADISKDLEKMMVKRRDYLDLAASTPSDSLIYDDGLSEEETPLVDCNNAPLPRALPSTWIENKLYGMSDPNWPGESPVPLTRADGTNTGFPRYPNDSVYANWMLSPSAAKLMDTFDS
Experiment [5] concerns the target Proto-oncogene tyrosine-protein kinase receptor Ret (Homo sapiens, UniProt P07949, G810C). Nature of the experiment: Inhibition of RET (unknown origin) G810C mutant.
The target in a further experiment is T1, Ephrin type-B receptor 4 (Homo sapiens, UniProt P54760).
T1 sequence (P54760 whole entry): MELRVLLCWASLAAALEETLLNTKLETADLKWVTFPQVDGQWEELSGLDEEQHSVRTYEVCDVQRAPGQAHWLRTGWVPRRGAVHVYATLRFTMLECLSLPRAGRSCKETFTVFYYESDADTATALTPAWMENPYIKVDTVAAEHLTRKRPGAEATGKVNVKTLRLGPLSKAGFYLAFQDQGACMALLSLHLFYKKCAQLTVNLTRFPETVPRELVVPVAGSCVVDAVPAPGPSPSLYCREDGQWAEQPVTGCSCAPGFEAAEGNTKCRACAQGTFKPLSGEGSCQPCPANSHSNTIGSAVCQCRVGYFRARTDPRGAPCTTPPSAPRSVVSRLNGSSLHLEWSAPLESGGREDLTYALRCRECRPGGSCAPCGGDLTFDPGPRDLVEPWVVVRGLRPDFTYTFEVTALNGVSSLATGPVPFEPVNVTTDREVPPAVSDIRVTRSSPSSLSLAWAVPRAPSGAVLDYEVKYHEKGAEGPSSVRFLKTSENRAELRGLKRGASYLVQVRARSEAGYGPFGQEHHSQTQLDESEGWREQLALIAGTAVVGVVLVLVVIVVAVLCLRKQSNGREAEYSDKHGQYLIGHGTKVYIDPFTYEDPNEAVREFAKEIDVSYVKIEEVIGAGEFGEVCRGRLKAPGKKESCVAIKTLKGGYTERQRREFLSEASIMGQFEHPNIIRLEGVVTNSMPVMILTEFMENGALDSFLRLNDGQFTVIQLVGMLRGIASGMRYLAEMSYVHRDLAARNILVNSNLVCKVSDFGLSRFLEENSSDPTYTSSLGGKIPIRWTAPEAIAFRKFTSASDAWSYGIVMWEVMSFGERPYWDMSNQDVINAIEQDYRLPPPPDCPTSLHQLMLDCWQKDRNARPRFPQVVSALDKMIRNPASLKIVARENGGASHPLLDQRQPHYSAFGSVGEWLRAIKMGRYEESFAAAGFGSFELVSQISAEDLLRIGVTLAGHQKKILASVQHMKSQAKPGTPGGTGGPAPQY
In words: Inhibition of EPHB4 (unknown origin).

The nature of experiment [6]: Induction of apoptosis in mouse BaF3 cells harboring CCDC6-RET assessed as early apoptotic cells at 10 nM incubated for 48 hrs by Annexin V-PE staining based flow cytometry analysis (Rvb =6.21%). In kind it is functional.
A short description of experiment [7]: Induction of apoptosis in mouse BaF3 cells harboring CCDC6-RET assessed as necrotic cells at 10 nM incubated for 48 hrs by Annexin V-PE staining based flow cytometry analysis (Rvb =0.19%). In kind it is functional.
Experiment [8] can be described thus: Induction of apoptosis in mouse BaF3 cells harboring CCDC6-RET assessed as viable cells at 100 nM incubated for 48 hrs by Annexin V-PE staining based flow cytometry analysis (Rvb =91.16%). In kind it is functional. To be noted: read-out: Activity.
Experiment [9] is described as follows: Induction of apoptosis in mouse BaF3 cells harboring CCDC6-RET assessed as late apoptotic cells at 100 nM incubated for 48 hrs by Annexin V-PE staining based flow cytometry analysis (Rvb =2.44%). In kind it is functional.
Experiment [10] in a line: Induction of apoptosis in mouse BaF3 cells harboring CCDC6-RET assessed as necrotic cells at 300 nM incubated for 48 hrs by Annexin V-PE staining based flow cytometry analysis (Rvb =0.19%). Type of experiment: functional.
Experiment [11] can be described thus: Induction of apoptosis in mouse BaF3 cells harboring CCDC6-RET G810C mutant assessed as late apoptotic cells at 30 nM incubated for 48 hrs by Annexin V-PE staining based flow cytometry analysis (Rvb =4.30%). In kind it is functional.
The nature of experiment [12]: Induction of apoptosis in mouse BaF3 cells harboring CCDC6-RET G810C mutant assessed as early apoptotic cells at 300 nM incubated for 48 hrs by Annexin V-PE staining based flow cytometry analysis (Rvb =8.74%). Type of experiment: functional.
Experiment [13] can be described thus: Induction of apoptosis in mouse BaF3 cells harboring CCDC6-RET G810C mutant assessed as late apoptotic cells at 300 nM incubated for 48 hrs by Annexin V-PE staining based flow cytometry analysis (Rvb =4.30%). Type of experiment: functional.
The nature of experiment [14]: Induction of apoptosis in mouse BaF3 cells harboring CCDC6-RET G810C mutant assessed as necrotic cells at 300 nM incubated for 48 hrs by Annexin V-PE staining based flow cytometry analysis (Rvb =0.48%). Type of experiment: functional.
Experiment [15] can be described thus: Induction of apoptosis in mouse BaF3 cells harboring CCDC6-RET G810R mutant assessed as early apoptotic cells at 30 nM incubated for 48 hrs by Annexin V-PE staining based flow cytometry analysis (Rvb =10 %). In kind it is functional.
Experiment [16] can be described thus: Induction of apoptosis in mouse BaF3 cells harboring CCDC6-RET G810R mutant assessed as early apoptotic cells at 300 nM incubated for 48 hrs by Annexin V-PE staining based flow cytometry analysis (Rvb =10 %). Type of experiment: functional.
Experiment [17] can be described thus: Induction of cell cycle arrest in mouse BaF3 cells harboring CCDC6-RET G810C mutant assessed as accumulation of cells at G0/G1 phase at 30 nM incubated for 24 hrs by propidium iodide staining based analysis (reference value: 52.11%). Type of experiment: functional.
Experiment [18] can be described thus: Induction of cell cycle arrest in mouse BaF3 cells harboring CCDC6-RET G810C mutant assessed as accumulation of cells at G0/G1 phase at 100 nM incubated for 24 hrs by propidium iodide staining based analysis (reference value: 52.11%). Type of experiment: functional.
Experiment [19] is described as follows: Induction of cell cycle arrest in mouse BaF3 cells harboring CCDC6-RET G810C mutant assessed as accumulation of cells at S phase at 100 nM incubated for 24 hrs by propidium iodide staining based analysis (reference value: 12.47%). In kind it is functional.
Experiment [20] in a line: Induction of cell cycle arrest in mouse BaF3 cells harboring CCDC6-RET G810C mutant assessed as accumulation of cells at S phase at 300 nM incubated for 24 hrs by propidium iodide staining based analysis (reference value: 12.47%). In kind it is functional.

Structures are written as SMILES.

Proto-oncogene tyrosine-protein kinase receptor Ret, sequence (P07949 29-1114 G810C limits assumed): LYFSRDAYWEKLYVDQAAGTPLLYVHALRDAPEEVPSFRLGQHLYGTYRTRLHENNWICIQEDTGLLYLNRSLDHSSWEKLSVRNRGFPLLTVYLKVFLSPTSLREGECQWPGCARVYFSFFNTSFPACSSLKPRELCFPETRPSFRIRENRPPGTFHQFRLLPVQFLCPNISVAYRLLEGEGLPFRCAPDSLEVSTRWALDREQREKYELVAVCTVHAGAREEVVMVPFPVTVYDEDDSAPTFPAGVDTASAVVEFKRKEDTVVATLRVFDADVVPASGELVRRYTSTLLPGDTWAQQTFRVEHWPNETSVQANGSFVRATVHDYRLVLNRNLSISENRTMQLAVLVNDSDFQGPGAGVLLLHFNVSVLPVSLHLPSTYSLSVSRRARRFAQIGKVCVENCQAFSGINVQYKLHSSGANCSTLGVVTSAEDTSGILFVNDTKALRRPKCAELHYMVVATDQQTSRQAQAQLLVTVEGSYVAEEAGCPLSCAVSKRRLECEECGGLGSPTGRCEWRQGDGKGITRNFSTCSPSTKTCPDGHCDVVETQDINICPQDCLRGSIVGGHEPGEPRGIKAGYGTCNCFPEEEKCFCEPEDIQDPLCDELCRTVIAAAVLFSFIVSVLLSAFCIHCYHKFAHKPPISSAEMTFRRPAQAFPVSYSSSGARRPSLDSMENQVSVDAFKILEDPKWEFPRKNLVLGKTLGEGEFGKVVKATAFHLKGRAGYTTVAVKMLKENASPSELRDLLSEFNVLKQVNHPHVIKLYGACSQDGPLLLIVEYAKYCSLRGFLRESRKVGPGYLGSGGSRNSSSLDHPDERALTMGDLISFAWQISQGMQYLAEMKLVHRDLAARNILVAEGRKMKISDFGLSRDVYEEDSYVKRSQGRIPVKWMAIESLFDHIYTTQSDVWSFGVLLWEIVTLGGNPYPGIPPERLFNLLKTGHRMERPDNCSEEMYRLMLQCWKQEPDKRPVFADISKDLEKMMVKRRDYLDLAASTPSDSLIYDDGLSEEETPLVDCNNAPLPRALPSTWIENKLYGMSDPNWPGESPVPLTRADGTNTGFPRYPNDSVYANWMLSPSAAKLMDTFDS

With `COc1cncc(-c2cn[nH]c2/C=C/c2ccc(NC(=O)Nc3cc(C(C)(C)C(F)(F)F)on3)c(Cl)c2)c1`, the Activity in experiment [1] is listed as 32.33%; in experiment [6] it was 8.7%; in experiment [7] it was 0.14%; in [9] it was 1.21%; in experiment [10] it was 0.04%; in experiment [11], 3.57%. Also, the Activity came out at 91.44% in experiment [12]; 0.31% in experiment [13]; 0.03% in experiment [14]; 9.96% in [15]; 0.29% in experiment [16]; 57.08% in [17]. Further, the Activity in experiment [18] came to 66.6%; in experiment [19], 6.84%; in experiment [20], 4.14%. Further, the IC50 in the experiment with BaF3 [2] turned out to be 25.7 nM; in the experiment with BaF3 [3], 28.4 nM; in experiment [5] it was 7.1 nM; against Ephrin type-B receptor 4, 36.4 nM. The molecule also showed an inhibition in [4] of 74%. In experiment [8], the viability at 0.1 µM was 24%.
